Test results taken from paper PMC6199309, “A therapeutic approach to pantothenate kinase associated neurodegeneration” (Nature Communications, 2018).

Columns and labels:
KIT-autoinhibited = molecular target: T1, KIT-autoinhibited (Homo sapiens, UniProt P10721); assay: KINOMEscan; format: binding; details: read-out: %Ctrl @ 10000nM
T1 construct: purchased DiscoverX KINOMEscan

VEGFR2 = molecular target: T2, VEGFR2 (Homo sapiens, UniProt P35968); assay: KINOMEscan; format: binding; details: read-out: %Ctrl @ 10000nM
T2 construct: DNA label for qPCR (T7 phage fusion or DNA tag); purchased DiscoverX scanMAX; host or cells: E. coli BL21-derived (T7 phage) or HEK-293

ERBB3 = molecular target: T3, ERBB3 (Homo sapiens, UniProt P21860); assay: KINOMEscan; format: binding; details: read-out: %Ctrl @ 10000nM
T3 construct: purchased DiscoverX KINOMEscan

LZK = molecular target: T4, LZK (Homo sapiens, UniProt O43283); assay: KINOMEscan; format: binding; details: read-out: %Ctrl @ 10000nM
T4 construct: purchased DiscoverX KINOMEscan

PLK3 = molecular target: T5, PLK3 (Homo sapiens, UniProt Q9H4B4); assay: KINOMEscan; format: binding; details: read-out: %Ctrl @ 10000nM
T5 construct: purchased DiscoverX KINOMEscan

LCK = molecular target: T6, LCK (Homo sapiens, UniProt P06239); assay: KINOMEscan; format: binding; details: read-out: %Ctrl @ 10000nM
T6 construct: purchased DiscoverX KINOMEscan

RIOK3 = molecular target: T7, RIOK3 (Homo sapiens, UniProt O14730); assay: KINOMEscan; format: binding; details: read-out: %Ctrl @ 10000nM
T7 construct: purchased DiscoverX KINOMEscan
T7 sequence (O14730 whole entry): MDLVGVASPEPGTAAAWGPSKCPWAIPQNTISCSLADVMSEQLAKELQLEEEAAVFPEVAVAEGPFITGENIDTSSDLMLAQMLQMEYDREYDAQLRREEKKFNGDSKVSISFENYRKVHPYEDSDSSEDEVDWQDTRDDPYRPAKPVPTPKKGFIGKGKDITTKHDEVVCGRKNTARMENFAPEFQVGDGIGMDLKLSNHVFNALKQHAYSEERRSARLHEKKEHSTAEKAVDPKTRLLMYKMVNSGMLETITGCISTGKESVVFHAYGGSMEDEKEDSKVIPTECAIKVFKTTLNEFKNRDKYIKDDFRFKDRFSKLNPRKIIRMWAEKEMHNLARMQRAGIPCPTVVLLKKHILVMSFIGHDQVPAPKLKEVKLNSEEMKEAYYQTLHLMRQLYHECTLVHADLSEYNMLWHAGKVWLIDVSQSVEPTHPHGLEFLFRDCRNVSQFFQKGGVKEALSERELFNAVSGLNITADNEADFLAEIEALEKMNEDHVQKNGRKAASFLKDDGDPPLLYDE

KIT(L576P) = molecular target: T8, KIT(L576P) (Homo sapiens, UniProt P10721, L576P); assay: KINOMEscan; format: binding; details: read-out: %Ctrl @ 10000nM
T8 construct: purchased DiscoverX KINOMEscan
T8 sequence (P10721 26-976 L576P): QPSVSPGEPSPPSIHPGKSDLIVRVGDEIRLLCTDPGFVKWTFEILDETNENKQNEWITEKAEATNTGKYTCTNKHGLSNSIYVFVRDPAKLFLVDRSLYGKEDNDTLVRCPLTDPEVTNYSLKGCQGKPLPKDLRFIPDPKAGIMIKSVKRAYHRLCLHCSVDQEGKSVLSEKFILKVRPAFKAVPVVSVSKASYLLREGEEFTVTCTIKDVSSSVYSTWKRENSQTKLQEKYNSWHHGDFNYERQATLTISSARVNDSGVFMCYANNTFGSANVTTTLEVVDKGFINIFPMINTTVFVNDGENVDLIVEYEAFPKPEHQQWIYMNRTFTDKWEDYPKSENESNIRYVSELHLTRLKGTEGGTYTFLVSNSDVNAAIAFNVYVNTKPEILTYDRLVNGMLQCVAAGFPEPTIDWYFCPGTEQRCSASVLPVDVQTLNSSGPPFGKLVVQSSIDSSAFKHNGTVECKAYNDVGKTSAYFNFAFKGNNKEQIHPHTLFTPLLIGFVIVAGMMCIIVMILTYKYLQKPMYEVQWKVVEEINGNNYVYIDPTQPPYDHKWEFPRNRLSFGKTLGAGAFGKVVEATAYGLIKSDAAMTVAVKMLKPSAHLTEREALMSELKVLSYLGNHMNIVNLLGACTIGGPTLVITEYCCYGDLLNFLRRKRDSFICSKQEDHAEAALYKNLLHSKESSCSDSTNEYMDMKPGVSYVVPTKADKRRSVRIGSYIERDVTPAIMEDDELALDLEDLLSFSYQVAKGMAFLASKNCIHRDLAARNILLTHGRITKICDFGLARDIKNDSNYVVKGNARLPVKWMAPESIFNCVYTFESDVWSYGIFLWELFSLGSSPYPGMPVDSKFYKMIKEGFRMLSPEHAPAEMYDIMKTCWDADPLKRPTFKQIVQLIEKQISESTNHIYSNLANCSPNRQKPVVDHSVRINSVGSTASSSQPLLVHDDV

DYRK1A = molecular target: T9, DYRK1A (Homo sapiens, UniProt Q13627); assay: KINOMEscan; format: binding; details: read-out: %Ctrl @ 10000nM
T9 construct: purchased DiscoverX KINOMEscan

TNNI3K = molecular target: T10, TNNI3K (Homo sapiens, UniProt Q59H18); assay: KINOMEscan; format: binding; details: read-out: %Ctrl @ 10000nM
T10 construct: purchased DiscoverX KINOMEscan
T10 sequence (Q59H18 whole entry): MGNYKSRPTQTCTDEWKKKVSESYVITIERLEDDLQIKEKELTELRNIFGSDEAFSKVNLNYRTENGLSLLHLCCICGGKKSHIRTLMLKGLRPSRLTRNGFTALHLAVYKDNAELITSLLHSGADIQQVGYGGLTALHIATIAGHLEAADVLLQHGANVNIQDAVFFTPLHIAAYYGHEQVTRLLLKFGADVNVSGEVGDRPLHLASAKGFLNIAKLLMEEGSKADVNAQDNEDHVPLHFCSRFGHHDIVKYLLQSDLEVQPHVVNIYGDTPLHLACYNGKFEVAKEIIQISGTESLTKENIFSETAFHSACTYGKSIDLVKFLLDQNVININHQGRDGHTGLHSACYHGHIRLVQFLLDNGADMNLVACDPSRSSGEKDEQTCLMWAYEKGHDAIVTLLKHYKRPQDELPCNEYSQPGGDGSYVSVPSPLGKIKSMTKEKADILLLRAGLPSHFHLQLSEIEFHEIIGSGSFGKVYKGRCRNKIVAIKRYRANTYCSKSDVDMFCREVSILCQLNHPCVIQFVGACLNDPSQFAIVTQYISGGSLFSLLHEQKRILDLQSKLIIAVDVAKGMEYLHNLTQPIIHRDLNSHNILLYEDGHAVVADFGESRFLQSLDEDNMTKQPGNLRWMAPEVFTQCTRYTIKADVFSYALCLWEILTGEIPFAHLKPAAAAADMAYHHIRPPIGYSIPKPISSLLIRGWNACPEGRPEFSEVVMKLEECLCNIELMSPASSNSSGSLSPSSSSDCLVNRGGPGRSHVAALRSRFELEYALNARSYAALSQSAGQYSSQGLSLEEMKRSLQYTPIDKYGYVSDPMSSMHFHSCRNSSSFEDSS

SRPK2 = molecular target: T11, SRPK2 (Homo sapiens, UniProt P78362); assay: KINOMEscan; format: binding; details: read-out: %Ctrl @ 10000nM
T11 construct: purchased DiscoverX KINOMEscan

ZAP70 = molecular target: T12, ZAP70 (Homo sapiens, UniProt P43403); assay: KINOMEscan; format: binding; details: read-out: %Ctrl @ 10000nM
T12 construct: purchased DiscoverX scanMAX; host or cells: E. coli BL21-derived host (T7 phage) or HEK-293

MAP4K4 = molecular target: T13, MAP4K4 (Homo sapiens, UniProt O95819); assay: KINOMEscan; format: binding; details: read-out: %Ctrl @ 10000nM
T13 construct: purchased DiscoverX KINOMEscan

MET(Y1235D) = molecular target: T14, MET(Y1235D) (Homo sapiens, UniProt P08581, Y1235D); assay: KINOMEscan; format: binding; details: read-out: %Ctrl @ 10000nM
T14 construct: purchased DiscoverX KINOMEscan

ASK1 = molecular target: T15, ASK1 (Homo sapiens, UniProt Q99683); assay: KINOMEscan; format: binding; details: read-out: %Ctrl @ 10000nM
T15 construct: purchased DiscoverX KINOMEscan

PIK3C2B = molecular target: T16, PIK3C2B (Homo sapiens, UniProt O00750); assay: KINOMEscan; format: binding; details: read-out: %Ctrl @ 10000nM
T16 construct: purchased DiscoverX KINOMEscan

CAMK2G = molecular target: T17, CAMK2G (Homo sapiens, UniProt Q13555); assay: KINOMEscan; format: binding; details: read-out: %Ctrl @ 10000nM
T17 construct: purchased DiscoverX KINOMEscan

BUB1 = molecular target: T18, BUB1 (Homo sapiens, UniProt O43683); assay: KINOMEscan; format: binding; details: read-out: %Ctrl @ 10000nM
T18 construct: purchased DiscoverX KINOMEscan

PKN1 = molecular target: T19, PKN1 (Homo sapiens, UniProt Q16512); assay: KINOMEscan; format: binding; details: read-out: %Ctrl @ 10000nM
T19 construct: purchased DiscoverX KINOMEscan

CDK4 = molecular target: T20, CDK4 (Homo sapiens, UniProt P11802); assay: KINOMEscan; format: binding; details: read-out: %Ctrl @ 10000nM
T20 construct: purchased DiscoverX KINOMEscan

STK16 = molecular target: T21, STK16 (Homo sapiens, UniProt O75716); assay: KINOMEscan; format: binding; details: read-out: %Ctrl @ 10000nM
T21 construct: purchased DiscoverX KINOMEscan

MEK6 = molecular target: T22, MEK6 (Homo sapiens, UniProt P52564); assay: KINOMEscan; format: binding; details: read-out: %Ctrl @ 10000nM
T22 construct: purchased DiscoverX KINOMEscan

PAMPA = details: PAMPA
MARK1 = molecular target: T23, MARK1 (Homo sapiens, UniProt Q9P0L2); assay: KINOMEscan; format: binding; details: read-out: %Ctrl @ 10000nM
T23 construct: purchased DiscoverX KINOMEscan

PCTK1 = molecular target: T24, PCTK1 (Homo sapiens, UniProt Q00536); assay: KINOMEscan; format: binding; details: read-out: %Ctrl @ 10000nM
T24 construct: purchased DiscoverX KINOMEscan

FAK = molecular target: T25, FAK (Homo sapiens, UniProt Q05397); assay: KINOMEscan; format: binding; details: read-out: %Ctrl @ 10000nM
T25 construct: purchased DiscoverX KINOMEscan

CAMK4 = molecular target: T26, CAMK4 (Homo sapiens, UniProt Q16566); assay: KINOMEscan; format: binding; details: read-out: %Ctrl @ 10000nM
T26 construct: purchased DiscoverX KINOMEscan

PIK3C2G = molecular target: T27, PIK3C2G (Homo sapiens, UniProt O75747); assay: KINOMEscan; format: binding; details: read-out: %Ctrl @ 10000nM
T27 construct: purchased DiscoverX KINOMEscan

MET = molecular target: T28, MET (Homo sapiens, UniProt P08581); assay: KINOMEscan; format: binding; details: read-out: %Ctrl @ 10000nM
T28 construct: purchased DiscoverX KINOMEscan

CDK8 = molecular target: T29, CDK8 (Homo sapiens, UniProt P49336); assay: KINOMEscan; format: binding; details: read-out: %Ctrl @ 10000nM
T29 construct: purchased DiscoverX KINOMEscan

PIK3CA(H1047Y) = molecular target: T30, PIK3CA(H1047Y) (Homo sapiens, UniProt P42336, H1047Y); assay: KINOMEscan; format: binding; details: read-out: %Ctrl @ 10000nM
T30 construct: purchased DiscoverX KINOMEscan

NEK4 = molecular target: T31, NEK4 (Homo sapiens, UniProt P51957); assay: KINOMEscan; format: binding; details: read-out: %Ctrl @ 10000nM
T31 construct: purchased DiscoverX KINOMEscan
T31 sequence (P51957 whole entry): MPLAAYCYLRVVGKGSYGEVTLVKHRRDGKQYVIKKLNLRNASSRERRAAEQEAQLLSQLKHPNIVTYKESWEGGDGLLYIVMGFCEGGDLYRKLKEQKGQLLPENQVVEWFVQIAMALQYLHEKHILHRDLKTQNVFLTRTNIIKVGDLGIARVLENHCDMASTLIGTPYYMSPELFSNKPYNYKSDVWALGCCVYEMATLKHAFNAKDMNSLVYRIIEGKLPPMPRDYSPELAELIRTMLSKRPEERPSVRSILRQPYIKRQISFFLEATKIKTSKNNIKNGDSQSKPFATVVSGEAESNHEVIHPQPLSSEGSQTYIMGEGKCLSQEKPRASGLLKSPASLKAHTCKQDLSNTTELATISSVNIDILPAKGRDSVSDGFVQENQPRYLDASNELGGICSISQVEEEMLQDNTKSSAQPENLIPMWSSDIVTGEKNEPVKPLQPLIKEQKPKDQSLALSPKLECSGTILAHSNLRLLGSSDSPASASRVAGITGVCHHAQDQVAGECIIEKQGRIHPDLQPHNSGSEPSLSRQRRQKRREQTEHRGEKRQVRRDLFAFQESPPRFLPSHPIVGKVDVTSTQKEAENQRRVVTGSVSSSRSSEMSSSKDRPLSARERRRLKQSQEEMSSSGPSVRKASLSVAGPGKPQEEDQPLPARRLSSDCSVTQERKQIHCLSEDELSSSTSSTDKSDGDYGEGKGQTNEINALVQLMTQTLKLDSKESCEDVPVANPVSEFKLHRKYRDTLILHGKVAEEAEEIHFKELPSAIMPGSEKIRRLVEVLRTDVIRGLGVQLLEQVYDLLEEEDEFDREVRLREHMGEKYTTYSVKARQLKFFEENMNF

ADCK4 = molecular target: T32, ADCK4 (Homo sapiens, UniProt Q96D53); assay: KINOMEscan; format: binding; details: read-out: %Ctrl @ 10000nM
T32 construct: purchased DiscoverX KINOMEscan

[1] = molecular target: T33, ABL1(E255K)-phosphorylated (Homo sapiens, UniProt P00519, E255K); assay: KINOMEscan; format: binding; details: read-out: %Ctrl @ 10000nM
T33 construct: purchased DiscoverX KINOMEscan

EPHA8 = molecular target: T34, EPHA8 (Homo sapiens, UniProt P29322); assay: KINOMEscan; format: binding; details: read-out: %Ctrl @ 10000nM
T34 construct: purchased DiscoverX KINOMEscan

MARK4 = molecular target: T35, MARK4 (Homo sapiens, UniProt Q96L34); assay: KINOMEscan; format: binding; details: read-out: %Ctrl @ 10000nM
T35 construct: purchased DiscoverX KINOMEscan

YSK4 = molecular target: T36, YSK4 (Homo sapiens, UniProt Q56UN5); assay: KINOMEscan; format: binding; details: read-out: %Ctrl @ 10000nM
T36 construct: purchased DiscoverX scanMAX; host or cells: E. coli BL21-derived host (T7 phage) or HEK-293

SBK1 = molecular target: T37, SBK1 (Homo sapiens, UniProt Q52WX2); assay: KINOMEscan; format: binding; details: read-out: %Ctrl @ 10000nM
T37 construct: purchased DiscoverX KINOMEscan

RET(V804L) = molecular target: T38, RET(V804L) (Homo sapiens, UniProt P07949, V804L); assay: KINOMEscan; format: binding; details: read-out: %Ctrl @ 10000nM
T38 construct: purchased DiscoverX KINOMEscan
T38 sequence (P07949 29-1114 V804L): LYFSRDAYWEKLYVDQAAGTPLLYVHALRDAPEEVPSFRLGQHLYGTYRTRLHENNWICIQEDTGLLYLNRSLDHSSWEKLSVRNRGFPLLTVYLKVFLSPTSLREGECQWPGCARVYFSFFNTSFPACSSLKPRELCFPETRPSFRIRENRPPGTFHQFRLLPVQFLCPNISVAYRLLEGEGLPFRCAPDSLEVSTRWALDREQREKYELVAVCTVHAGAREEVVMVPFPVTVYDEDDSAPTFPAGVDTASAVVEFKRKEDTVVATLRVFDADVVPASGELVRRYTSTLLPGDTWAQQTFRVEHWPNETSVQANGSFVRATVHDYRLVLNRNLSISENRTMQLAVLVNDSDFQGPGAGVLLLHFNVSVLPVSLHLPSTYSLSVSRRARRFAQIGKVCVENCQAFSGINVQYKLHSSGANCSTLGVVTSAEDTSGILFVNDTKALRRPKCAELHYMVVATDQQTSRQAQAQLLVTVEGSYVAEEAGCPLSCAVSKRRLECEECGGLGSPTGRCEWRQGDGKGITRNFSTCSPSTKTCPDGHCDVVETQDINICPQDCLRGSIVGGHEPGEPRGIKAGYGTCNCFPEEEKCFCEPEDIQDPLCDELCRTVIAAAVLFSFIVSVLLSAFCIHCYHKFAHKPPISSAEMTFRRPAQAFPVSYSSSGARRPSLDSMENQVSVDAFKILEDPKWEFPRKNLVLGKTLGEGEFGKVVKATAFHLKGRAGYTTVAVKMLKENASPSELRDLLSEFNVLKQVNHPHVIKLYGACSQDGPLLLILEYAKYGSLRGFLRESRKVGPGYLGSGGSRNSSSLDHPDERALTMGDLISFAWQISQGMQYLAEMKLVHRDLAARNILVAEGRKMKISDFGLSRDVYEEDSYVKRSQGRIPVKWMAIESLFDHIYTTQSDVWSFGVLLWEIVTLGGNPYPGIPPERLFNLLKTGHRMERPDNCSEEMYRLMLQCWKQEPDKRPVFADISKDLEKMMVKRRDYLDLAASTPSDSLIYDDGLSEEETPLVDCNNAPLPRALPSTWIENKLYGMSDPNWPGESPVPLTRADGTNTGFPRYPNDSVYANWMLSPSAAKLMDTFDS

TLK2 = molecular target: T39, TLK2 (Homo sapiens, UniProt Q86UE8); assay: KINOMEscan; format: binding; details: read-out: %Ctrl @ 10000nM
T39 construct: purchased DiscoverX KINOMEscan
T39 sequence (Q86UE8 whole entry): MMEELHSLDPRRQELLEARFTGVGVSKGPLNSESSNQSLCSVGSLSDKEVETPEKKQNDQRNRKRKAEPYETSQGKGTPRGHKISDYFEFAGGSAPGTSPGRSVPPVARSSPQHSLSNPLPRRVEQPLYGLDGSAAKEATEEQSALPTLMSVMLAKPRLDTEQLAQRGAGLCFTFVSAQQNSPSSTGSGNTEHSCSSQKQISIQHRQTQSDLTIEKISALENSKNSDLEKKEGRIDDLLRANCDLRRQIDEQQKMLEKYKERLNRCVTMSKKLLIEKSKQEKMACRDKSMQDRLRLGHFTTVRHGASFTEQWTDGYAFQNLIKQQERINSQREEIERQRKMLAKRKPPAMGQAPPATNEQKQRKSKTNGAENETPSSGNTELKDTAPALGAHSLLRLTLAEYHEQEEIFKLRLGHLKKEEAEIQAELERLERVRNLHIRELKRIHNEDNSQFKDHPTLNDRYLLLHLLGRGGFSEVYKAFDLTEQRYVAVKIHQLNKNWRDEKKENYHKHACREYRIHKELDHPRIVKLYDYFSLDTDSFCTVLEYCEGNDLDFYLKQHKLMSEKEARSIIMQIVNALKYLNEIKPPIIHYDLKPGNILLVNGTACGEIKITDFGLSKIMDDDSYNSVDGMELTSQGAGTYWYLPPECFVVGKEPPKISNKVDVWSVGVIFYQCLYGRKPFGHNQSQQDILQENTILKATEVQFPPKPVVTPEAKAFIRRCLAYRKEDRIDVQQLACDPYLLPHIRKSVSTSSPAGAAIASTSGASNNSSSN

MAPKAPK5 = molecular target: T40, MAPKAPK5 (Homo sapiens, UniProt Q8IW41); assay: KINOMEscan; format: binding; details: read-out: %Ctrl @ 10000nM
T40 construct: purchased DiscoverX KINOMEscan

DAPK2 = molecular target: T41, DAPK2 (Homo sapiens, UniProt Q9UIK4); assay: KINOMEscan; format: binding; details: read-out: %Ctrl @ 10000nM
T41 construct: purchased DiscoverX KINOMEscan

T1 sequence (P10721 26-976): as the sequence (P10721 26-976 L576P) above, with P551L counted along it

Compound: CC(C)c1ccc(CC(=O)N2CCN(c3ccc(C#N)nn3)CC2)cc1 [PZ-2891, 6-(4-(2-(4-isopropylphenyl)acetyl)piperazin-1-yl)pyridazine-3-carbonitrile]
- remaining binding at 10 µM (KIT-autoinhibited): 81%
- remaining binding at 10 µM (VEGFR2): 75%
- remaining binding at 10 µM (ERBB3): 60%
- remaining binding at 10 µM (LZK): 89%
- remaining binding at 10 µM (PLK3): 78%
- remaining binding at 10 µM (LCK): 98%
- remaining binding at 10 µM (RIOK3): 100%
- remaining binding at 10 µM (KIT(L576P)): 88%
- remaining binding at 10 µM (DYRK1A): 71%
- remaining binding at 10 µM (TNNI3K): 76%
- remaining binding at 10 µM (SRPK2): 97%
- remaining binding at 10 µM (ZAP70): 96%
- remaining binding at 10 µM (MAP4K4): 100%
- remaining binding at 10 µM (MET(Y1235D)): 66%
- remaining binding at 10 µM (ASK1): 74%
- remaining binding at 10 µM (PIK3C2B): 100%
- remaining binding at 10 µM (CAMK2G): 86%
- remaining binding at 10 µM (BUB1): 100%
- remaining binding at 10 µM (PKN1): 69%
- remaining binding at 10 µM (CDK4): 99%
- remaining binding at 10 µM (STK16): 98%
- remaining binding at 10 µM (MEK6): 94%
- PAMPA; Avg Pe (PAMPA): 413 10-6 cm/s
- remaining binding at 10 µM (MARK1): 77%
- remaining binding at 10 µM (PCTK1): 76%
- remaining binding at 10 µM (FAK): 89%
- remaining binding at 10 µM (CAMK4): 89%
- remaining binding at 10 µM (PIK3C2G): 61%
- remaining binding at 10 µM (MET): 80%
- remaining binding at 10 µM (CDK8): 83%
- remaining binding at 10 µM (PIK3CA(H1047Y)): 46%
- remaining binding at 10 µM (NEK4): 95%
- remaining binding at 10 µM (ADCK4): 92%
- remaining binding at 10 µM [1]: 53%
- remaining binding at 10 µM (EPHA8): 95%
- remaining binding at 10 µM (MARK4): 81%
- remaining binding at 10 µM (YSK4): 89%
- remaining binding at 10 µM (SBK1): 62%
- remaining binding at 10 µM (RET(V804L)): 96%
- remaining binding at 10 µM (TLK2): 98%
- remaining binding at 10 µM (MAPKAPK5): 74%
- remaining binding at 10 µM (DAPK2): 95%
